Measurements: patent US20210186947A1, “TOMM6-INTERACTING EXTRACTS AND COMPOUNDS FOR USE IN THE TREATMENT AND PROPHYLAXIS OF NERVOUS SYSTEM DISEASES, ATHEROSCLEROSIS, HEPATITIS B INFECTION AND HUMAN PAPILLOMA VIRUS (HPV) INFECTION” (ETH ZURICH, priority 2018, published 2021)

Tests used:
[1] = test system: HBsAg (hepatitis B virus major surface antigen); experiment: HBsAg aggregation in yeast, immunoblot detection of HBsAg; format: cell-based; settings: alizarin 10 microg/ml and 1 microg/ml (FIG. 16D)
Text: Recombinant HBsAg cDNA (synthesized by GeneScript, Piscataway, N.J., USA) was inserted into the expression vector p42K-TEF (D3011001-1 Dualsystems Biotech AG, Zurich). Yeast transformants were selected in the presence of G418 in the yeast growth medium (YPD; Bacto-yeast extract 10 g/L, Bacto-peptone 20 g/L and D-Glucose […]). Yeast (Saccharomyces cerevisae) strain INVSc1 was used (Invitrogen GmbH, Nr. C810-00). After 3-4 days of cultivation to allow for protein expression, yeast cells were harvested by centrifugation, followed by washing with ice-cold PBS. The yeast cell pellet was immediately frozen at −70° C. Proteins were extracted for 30 min. at 4° C. with solubilization buffer (1% sodium deoxycholate, 0.1% SDS, 0.1% NP40, 5 mM EDTA, 50 mM Tris, pH 8.0) supplemented with protease/phosphatase inhibitors (Cat. No. P8349, and/or PPC1010, Sigma-Aldrich, St. Louis, Mo., USA). […] Protein were separated by urea-containing SDS-PAGE (7.5-10%) under reducing conditions, transferred to PVDF membranes by electrophoretic protein transfer in a tank transfer cell (Mini Trans-Blot cell, Bio-Rad GmbH, Munchen, Germany), and transferred HBsAg proteins were detected in immunoblot with HBsAg-specific antibodies raised in rabbit against an N-terminal epitope of HBsAg, or by a monoclonal HBsAg antibody produced in mouse (SAB4700767, Sigma-Aldrich, St. Louis, Mo., USA). […]

Abeta plaques = experiment: Abeta plaque load in Tg2576 mice, immunohistology with BAM-10 antibody; format: in vivo; settings: 18-month-old Tg2576 mice treated for 6 months

`O=C1c2ccccc2C(=O)c2c1ccc(O)c2O` [Compound-1, 1,2-dihydroxyanthraquinone] was tested, and the “aggregation and assembly of HBsAg” value [1] was “inhibited the aggregation and assembly of HBsAg” and the “Abeta plaque load in hippocampal and brain cortical areas” value (Abeta plaques) was “significantly inhibited the accumulation of Abeta plaques”.
